In article PMC5762315, “Inhibition of polo-like kinase 4 (PLK4): a new therapeutic option for rhabdoid tumors and pediatric medulloblastoma” (Oncotarget, 2017):
Where “and” joins values, the source holds several entries; their conditions need not be identical. Equal values may be shown once.

What was measured:
Experiment in all cases: biochemical
Type in all cases: biochemical
[1] = target: various kinases (Homo sapiens, UniProt P16234, D842V); details: PDGFRA D842V
[2] = target: various kinases (Homo sapiens, UniProt Q00537); details: CDK17/cyclin Y
[3] = target: T1, various kinases (Homo sapiens, UniProt Q13188); details: kinase STK3 (MST2); ZLYTE
T1 sequence (Q13188 1-491): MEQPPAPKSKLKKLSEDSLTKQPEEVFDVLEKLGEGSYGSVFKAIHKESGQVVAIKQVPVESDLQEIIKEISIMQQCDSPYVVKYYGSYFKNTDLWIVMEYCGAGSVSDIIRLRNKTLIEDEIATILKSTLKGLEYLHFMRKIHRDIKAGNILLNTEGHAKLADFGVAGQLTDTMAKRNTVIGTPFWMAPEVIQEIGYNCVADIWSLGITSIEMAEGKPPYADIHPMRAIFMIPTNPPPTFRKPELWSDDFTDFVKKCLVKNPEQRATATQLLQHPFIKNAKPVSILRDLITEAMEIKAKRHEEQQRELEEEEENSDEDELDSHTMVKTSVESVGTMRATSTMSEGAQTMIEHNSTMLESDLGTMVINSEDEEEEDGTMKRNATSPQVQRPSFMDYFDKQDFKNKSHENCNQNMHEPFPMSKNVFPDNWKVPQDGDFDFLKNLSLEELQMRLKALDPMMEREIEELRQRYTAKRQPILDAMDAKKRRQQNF

[4] = target: various kinases (Homo sapiens, UniProt Q12866); details: MERTK (cMER)
[5] = target: T2, various kinases (Homo sapiens, UniProt Q96BR1); details: kinase SGKL (SGK3); ZLYTE
T2 sequence (Q96BR1 1-496): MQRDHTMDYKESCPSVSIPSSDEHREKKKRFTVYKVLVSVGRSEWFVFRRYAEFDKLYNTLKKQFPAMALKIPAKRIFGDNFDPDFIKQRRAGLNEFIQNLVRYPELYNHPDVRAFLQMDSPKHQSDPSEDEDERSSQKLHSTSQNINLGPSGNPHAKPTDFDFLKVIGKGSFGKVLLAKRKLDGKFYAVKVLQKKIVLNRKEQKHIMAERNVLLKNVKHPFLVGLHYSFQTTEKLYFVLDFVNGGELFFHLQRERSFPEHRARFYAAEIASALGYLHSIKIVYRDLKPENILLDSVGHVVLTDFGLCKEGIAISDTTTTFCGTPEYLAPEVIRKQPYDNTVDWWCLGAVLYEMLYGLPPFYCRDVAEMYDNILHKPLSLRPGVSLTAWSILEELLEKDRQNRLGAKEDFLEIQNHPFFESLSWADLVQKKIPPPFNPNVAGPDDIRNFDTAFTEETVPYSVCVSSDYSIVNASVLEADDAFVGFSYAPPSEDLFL

[6] = target: various kinases (Homo sapiens, UniProt O00506); details: kinase STK25 (YSK1); ZLYTE
[7] = target: various kinases (Homo sapiens, UniProt Q9Y6E0); details: kinase STK24 (MST3); ZLYTE
[8] = target: various kinases (Homo sapiens, UniProt P00533, T790M); details: EGFR (ErbB1) T790M
[9] = target: various kinases (Homo sapiens, UniProt P49759); details: CLK1
[10] = target: various kinases (Homo sapiens, UniProt Q9H1R3); details: MYLK2 (skMLCK)
[11] = target: various kinases (Homo sapiens, UniProt P49761); details: CLK3
[12] = target: various kinases (Homo sapiens, UniProt Q12851); details: MAP4K2 (GCK)
[13] = target: various kinases (Homo sapiens, UniProt P78527); details: DNA-PK
[14] = target: various kinases (Homo sapiens, UniProt Q9H2X6); details: HIPK2
[15] = target: various kinases (Homo sapiens, UniProt O96017); details: CHEK2 (CHK2)
[16] = target: various kinases (Homo sapiens, UniProt P16591); details: FER
[17] = target: various kinases (Homo sapiens, UniProt P00533, L858R/T790M); details: EGFR (ErbB1) T790M L858R
[18] = target: various kinases (Homo sapiens, UniProt P08631); details: HCK
[19] = target: various kinases (Homo sapiens, UniProt Q9HC98); details: NEK6
[20] = target: T3, various kinases (Homo sapiens, UniProt P51817); details: kinase PRKX; ZLYTE
T3 sequence (P51817 1-358): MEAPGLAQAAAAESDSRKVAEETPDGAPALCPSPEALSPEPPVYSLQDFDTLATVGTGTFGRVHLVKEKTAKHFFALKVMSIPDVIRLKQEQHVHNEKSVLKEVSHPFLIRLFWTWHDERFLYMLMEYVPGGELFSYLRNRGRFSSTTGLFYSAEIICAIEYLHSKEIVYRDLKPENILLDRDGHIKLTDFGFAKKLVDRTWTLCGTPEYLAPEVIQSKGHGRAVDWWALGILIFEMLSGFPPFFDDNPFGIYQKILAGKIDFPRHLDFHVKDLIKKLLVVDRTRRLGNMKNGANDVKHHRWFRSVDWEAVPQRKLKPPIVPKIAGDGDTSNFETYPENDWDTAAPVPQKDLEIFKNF

[21] = target: various kinases (Homo sapiens, UniProt P16234, V561D); details: PDGFRA V561D
[22] = target: various kinases (Homo sapiens, UniProt O96013); details: PAK4
Wherever % Inhibition Average is given: test concentration or dose not given here.
Wherever % Inhibition Duplicate #1 is given: test concentration or dose not given here.
Wherever % Inhibition Duplicate #2 is given: test concentration or dose not given here.

Chain of various kinases (Homo sapiens, UniProt Q9Y6E0) (Q9Y6E0 whole entry): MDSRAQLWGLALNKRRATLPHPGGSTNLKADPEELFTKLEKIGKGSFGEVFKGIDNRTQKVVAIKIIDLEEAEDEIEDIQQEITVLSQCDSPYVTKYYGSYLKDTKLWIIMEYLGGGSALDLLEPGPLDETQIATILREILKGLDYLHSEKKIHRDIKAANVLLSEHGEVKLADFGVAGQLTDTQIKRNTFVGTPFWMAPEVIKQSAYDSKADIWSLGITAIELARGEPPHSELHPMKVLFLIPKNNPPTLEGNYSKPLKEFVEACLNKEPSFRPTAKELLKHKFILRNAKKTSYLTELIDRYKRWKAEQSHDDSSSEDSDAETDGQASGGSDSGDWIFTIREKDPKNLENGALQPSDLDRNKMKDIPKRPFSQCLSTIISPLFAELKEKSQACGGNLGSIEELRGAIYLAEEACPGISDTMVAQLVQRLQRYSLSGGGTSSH
Chain of various kinases (Homo sapiens, UniProt O00506) (O00506 whole entry): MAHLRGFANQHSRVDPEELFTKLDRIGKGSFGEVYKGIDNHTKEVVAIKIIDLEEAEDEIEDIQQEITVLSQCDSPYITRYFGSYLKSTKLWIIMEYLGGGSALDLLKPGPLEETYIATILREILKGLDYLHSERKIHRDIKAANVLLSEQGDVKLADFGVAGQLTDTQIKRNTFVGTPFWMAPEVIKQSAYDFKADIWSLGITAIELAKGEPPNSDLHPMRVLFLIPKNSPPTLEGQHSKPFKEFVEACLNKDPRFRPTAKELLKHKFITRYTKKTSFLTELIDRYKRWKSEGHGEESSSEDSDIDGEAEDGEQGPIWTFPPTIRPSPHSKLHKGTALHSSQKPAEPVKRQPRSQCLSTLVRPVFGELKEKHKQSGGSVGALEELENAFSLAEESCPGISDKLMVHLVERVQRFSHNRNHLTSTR
Chain of various kinases (Homo sapiens, UniProt Q12866) (Q12866 21-999): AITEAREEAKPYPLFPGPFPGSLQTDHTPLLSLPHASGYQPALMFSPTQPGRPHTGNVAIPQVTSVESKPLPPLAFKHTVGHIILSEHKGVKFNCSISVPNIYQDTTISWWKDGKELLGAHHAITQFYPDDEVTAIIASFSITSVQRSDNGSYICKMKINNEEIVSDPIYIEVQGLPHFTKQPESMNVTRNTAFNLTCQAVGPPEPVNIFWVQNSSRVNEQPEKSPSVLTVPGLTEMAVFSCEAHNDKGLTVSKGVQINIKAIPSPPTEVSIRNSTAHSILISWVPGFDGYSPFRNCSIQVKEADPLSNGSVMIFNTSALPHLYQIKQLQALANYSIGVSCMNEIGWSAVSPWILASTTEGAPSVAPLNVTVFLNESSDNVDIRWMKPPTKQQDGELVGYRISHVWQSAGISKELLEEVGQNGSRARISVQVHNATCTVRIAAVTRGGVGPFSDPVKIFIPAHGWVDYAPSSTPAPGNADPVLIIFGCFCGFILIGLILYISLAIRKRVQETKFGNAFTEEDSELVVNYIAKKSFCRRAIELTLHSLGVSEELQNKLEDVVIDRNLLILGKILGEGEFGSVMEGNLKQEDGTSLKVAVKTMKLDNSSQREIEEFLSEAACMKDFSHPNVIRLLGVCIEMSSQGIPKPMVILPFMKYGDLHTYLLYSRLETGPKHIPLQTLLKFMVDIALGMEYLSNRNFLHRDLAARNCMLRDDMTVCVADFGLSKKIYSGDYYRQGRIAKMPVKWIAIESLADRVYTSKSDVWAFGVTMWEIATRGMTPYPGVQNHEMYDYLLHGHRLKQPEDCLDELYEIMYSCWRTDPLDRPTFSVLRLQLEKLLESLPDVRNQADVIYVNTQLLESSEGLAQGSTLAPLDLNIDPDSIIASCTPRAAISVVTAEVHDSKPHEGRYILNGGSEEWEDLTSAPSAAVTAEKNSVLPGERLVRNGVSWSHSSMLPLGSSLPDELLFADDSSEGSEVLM
Chain of various kinases (Homo sapiens, UniProt Q9H1R3) (Q9H1R3 whole entry): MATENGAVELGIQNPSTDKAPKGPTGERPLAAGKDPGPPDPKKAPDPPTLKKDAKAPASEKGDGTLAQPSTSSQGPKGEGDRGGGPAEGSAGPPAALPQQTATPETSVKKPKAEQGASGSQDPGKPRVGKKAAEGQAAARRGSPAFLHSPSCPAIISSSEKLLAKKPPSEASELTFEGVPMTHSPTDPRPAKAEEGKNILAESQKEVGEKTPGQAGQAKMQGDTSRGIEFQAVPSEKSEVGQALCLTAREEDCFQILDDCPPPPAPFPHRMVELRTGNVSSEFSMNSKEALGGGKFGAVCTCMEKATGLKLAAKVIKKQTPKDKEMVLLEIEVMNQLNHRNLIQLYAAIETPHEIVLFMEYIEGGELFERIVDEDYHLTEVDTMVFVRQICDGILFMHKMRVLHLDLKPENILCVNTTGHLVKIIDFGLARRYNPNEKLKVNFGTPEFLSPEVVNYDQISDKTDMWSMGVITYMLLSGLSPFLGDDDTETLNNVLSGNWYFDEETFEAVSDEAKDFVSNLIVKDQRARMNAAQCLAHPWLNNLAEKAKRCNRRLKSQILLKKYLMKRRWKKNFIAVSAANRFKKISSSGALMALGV
Chain of various kinases (Homo sapiens, UniProt Q12851) (Q12851 whole entry): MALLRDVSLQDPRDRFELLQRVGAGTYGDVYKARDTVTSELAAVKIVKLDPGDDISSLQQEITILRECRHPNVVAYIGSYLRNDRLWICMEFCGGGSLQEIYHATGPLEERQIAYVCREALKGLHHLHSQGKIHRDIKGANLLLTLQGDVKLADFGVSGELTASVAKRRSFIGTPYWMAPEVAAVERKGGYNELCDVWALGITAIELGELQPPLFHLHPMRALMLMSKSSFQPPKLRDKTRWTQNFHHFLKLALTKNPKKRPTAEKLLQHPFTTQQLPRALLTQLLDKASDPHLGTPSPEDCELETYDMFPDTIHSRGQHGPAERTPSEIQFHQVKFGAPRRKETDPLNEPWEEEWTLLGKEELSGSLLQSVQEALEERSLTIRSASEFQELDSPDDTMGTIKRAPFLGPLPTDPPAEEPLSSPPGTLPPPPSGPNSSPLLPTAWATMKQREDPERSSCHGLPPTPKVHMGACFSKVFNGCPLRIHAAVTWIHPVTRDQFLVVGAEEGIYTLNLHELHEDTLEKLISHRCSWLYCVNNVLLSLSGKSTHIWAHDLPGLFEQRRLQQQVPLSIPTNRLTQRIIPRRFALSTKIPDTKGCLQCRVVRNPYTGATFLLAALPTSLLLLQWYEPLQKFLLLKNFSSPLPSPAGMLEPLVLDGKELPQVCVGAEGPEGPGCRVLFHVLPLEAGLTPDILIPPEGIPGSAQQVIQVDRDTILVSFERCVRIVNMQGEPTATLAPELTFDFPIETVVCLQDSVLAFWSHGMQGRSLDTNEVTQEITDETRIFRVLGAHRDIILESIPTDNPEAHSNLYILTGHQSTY
Chain of various kinases (Homo sapiens, UniProt P00533, L858R/T790M) (P00533 25-1210 T790M/L858R): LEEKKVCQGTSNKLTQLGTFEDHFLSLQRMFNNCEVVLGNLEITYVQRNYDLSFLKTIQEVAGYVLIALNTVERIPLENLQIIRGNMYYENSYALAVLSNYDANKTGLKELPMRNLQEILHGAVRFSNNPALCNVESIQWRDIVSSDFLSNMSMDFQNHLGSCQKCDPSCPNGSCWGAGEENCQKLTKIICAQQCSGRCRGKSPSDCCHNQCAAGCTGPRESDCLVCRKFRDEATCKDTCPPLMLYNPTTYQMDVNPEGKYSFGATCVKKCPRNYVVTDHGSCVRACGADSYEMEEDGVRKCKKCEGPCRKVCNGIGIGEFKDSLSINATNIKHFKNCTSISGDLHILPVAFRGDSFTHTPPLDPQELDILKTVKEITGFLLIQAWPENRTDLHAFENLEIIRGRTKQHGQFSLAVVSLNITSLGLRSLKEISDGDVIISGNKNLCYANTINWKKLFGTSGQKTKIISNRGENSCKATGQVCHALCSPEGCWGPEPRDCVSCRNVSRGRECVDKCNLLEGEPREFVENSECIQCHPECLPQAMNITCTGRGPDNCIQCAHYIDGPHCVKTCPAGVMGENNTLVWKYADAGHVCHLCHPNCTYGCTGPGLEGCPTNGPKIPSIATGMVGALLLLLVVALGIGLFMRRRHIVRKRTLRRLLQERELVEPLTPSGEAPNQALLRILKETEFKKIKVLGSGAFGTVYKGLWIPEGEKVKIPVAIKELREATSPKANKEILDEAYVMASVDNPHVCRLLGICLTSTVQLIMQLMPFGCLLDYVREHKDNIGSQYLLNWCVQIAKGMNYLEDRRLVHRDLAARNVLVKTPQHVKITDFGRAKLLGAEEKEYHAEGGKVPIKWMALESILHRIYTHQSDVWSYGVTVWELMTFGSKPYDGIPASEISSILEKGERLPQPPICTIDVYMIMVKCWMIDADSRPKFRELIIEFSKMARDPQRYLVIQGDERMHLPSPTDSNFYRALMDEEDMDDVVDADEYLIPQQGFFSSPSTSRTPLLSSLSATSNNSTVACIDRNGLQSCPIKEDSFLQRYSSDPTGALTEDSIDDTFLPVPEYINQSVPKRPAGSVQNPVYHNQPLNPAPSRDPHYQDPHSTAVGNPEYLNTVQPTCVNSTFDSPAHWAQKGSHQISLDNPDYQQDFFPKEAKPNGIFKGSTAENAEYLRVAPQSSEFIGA
Chain of various kinases (Homo sapiens, UniProt P08631) (P08631 whole entry): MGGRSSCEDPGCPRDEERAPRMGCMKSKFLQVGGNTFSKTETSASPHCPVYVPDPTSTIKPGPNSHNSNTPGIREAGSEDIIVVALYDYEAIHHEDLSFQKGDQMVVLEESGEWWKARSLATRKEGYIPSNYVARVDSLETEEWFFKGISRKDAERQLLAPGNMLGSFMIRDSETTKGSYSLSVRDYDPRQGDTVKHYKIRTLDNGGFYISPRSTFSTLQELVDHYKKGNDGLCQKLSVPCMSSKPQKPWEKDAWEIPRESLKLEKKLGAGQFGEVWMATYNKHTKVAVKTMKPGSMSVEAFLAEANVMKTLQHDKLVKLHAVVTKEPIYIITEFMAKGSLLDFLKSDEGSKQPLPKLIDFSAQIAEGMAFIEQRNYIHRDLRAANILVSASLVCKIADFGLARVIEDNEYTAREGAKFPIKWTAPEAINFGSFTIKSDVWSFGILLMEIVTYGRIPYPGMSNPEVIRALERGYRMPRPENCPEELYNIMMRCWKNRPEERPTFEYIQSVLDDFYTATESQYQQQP

## COc1ccc2c(c1)[C@]1(C[C@H]1c1ccc3c(/C=C/c4ccc(CN5C[C@@H](C)O[C@@H](C)C5)cc4)n[nH]c3c1)C(=O)N2 [CFI-400945]
[1]
  % Inhibition: 4% and 10%
[2]
  % Inhibition: -1% and 8%
[3]
  % Inhibition Average: 13%
  % Inhibition Duplicate #1: 15%
  % Inhibition Duplicate #2: 12%
[4]
  % Inhibition: -2% and 1%
[5]
  % Inhibition Average: 3%
  % Inhibition Duplicate #1: 4%
  % Inhibition Duplicate #2: 2%
[6]
  % Inhibition Average: -3%
  % Inhibition Duplicate #1: 0%
  % Inhibition Duplicate #2: -6%
[7]
  % Inhibition Average: 7%
  % Inhibition Duplicate #1: 7%
  % Inhibition Duplicate #2: 7%
[8]
  % Inhibition: 3%
[9]
  % Inhibition: -1%
[10]
  % Inhibition: 6% and 7%
[11]
  % Inhibition: 2% and 0%
[12]
  % Inhibition: 43% and 39%
[13]
  % Inhibition: 3% and 1%
[14]
  % Inhibition: 2% and 0%
[15]
  % Inhibition: 3% and 2%
[16]
  % Inhibition: 7% and 11%
[17]
  % Inhibition: 5% and 4%
[18]
  % Inhibition: 13% and 11%
[19]
  % Inhibition: 8% and 13%
[20]
  % Inhibition Average: 5%
  % Inhibition Duplicate #1: 6%
  % Inhibition Duplicate #2: 4%
[21]
  % Inhibition: 5% and 4%
[22]
  % Inhibition: 10% and 9%
